This is an account of results in patent US11008340B2, “Modulators of ROR-gamma” (Vitae Pharmaceuticals, LLC, priority 2015, dated 2021).

Molecules are shown by their SMILES. pIC50, pKi: −log10 of the molar value. Read-outs that look alike come from different tables or passages of the source.

Test [1] deals with T1, full-length RORγt in Jurkat cells (Homo sapiens, UniProt P51449).
T1 construct: transcriptional activity of the full-length RORγt in Jurkat cells; host or cells: Jurkat cells (ATCC TIB-152)
T1 sequence (P51449 1-497 isoform P51449-2): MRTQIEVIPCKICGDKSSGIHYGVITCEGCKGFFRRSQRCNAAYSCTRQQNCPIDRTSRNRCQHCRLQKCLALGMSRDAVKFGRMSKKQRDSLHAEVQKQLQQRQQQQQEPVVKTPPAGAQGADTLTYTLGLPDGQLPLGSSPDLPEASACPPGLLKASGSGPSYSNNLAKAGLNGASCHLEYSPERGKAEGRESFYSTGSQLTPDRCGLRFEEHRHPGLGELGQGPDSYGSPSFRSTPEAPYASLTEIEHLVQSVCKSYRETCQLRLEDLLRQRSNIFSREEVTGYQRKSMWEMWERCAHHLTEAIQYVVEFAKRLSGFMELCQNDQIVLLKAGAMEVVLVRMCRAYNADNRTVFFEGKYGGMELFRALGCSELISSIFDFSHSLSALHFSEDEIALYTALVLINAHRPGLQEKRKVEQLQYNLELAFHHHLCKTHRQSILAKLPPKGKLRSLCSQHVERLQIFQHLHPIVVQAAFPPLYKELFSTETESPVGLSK
The test is described as follows: RORγt 5×RORE Assay in Jurkat Cells (Assay 2). In kind it is cell-based. The conditions noted are these: 5×RORE luciferase reporter. How it is done: [formula] RORγt 5×RORE Assay in Jurkat Cells (Assay 2)
Compounds described herein were tested for RORγ inverse agonist activity in a cell-based, transcriptional activity assay. Secreted Nanoluc″ luciferase was used as a reporter for transcriptional activity of the full-length RORγt in Jurkat cells (ATCC, Cat. #TIB-152). A reporter plasmid was constructed by inserting 5 repeats of the ROR Response Element (RORE) […] (SEQ ID NO: 1) into a commercially available promoterless plasmid pNL1.3[secNluc] (Promega, Cat. #N1021) using KpnI and HindIII restriction sites. The expression plasmid for RORγt was purchased (Geneocopoeia, Cat. #EX-T6988-M02). Jurkat cells (30 million cells) were transfected with 11 μg of EX-T6988-MO2 and 26 μg of the reporter plasmid in OptiMEM® media using Lipofectamine LTX and Plus™ reagents (Life Technologies, Cat. #15338-100). After 5-6 hrs of incubation at 37° C./5% CO2, the cells were collected, resuspended in phenol-red free RPMI media containing 10% (v/v) delipidated FBS (Hyclone, Cat. #SH30855.03) and dispensed into 96-well clear bottom tissue culture plates (CoStar, Cat. #3603), at 80,000 cells per well. Tested compounds were added to the cells in the same media (final concentration of DMSO was 0.1% (v/v)), and the plates were incubated at 37° C./5% CO2 for 16-18 hrs. Luciferase activity in the conditioned supernatants was determined with NanoGlo® assay reagents (Promega, Cat. #N1130).
On the technique in general: A reporter such as luciferase makes a cellular process visible.

Test [2] concerns the target T2, recombinant RORγ Ligand Binding Domain (LBD) protein (Homo sapiens, UniProt P51449).
T2 construct: 6×His; GST
T2 sequence (P51449 269-508 limits assumed): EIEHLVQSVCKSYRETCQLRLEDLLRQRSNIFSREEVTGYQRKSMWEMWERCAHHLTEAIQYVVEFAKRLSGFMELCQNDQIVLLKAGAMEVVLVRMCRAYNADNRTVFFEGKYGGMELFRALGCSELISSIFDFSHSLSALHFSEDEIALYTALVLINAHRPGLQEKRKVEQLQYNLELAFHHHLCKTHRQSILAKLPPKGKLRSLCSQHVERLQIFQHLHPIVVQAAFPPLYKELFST
The test can be described thus: Radio-Ligand RORγ Binding Assay (Assay 1). The following applies: radio-ligand competition, RORγ LBD, read-out: Avg ROR Bind Ki. In short, it runs like this:
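Cell-free SPA competition between compound and 25-hydroxy[26,27-^3H]-cholesterol for 6×His-GST-tagged RORγ LBD in 50 mM HEPES pH 7.4 with NaCl, MgCl2, glycerol, CHAPS, octylglucoside and DTT. Mix was shaken 20 min, held 10 min at rt, then read after poly-Lys YSi beads. IC50 came from a four-parameter fit, and Ki from radioligand KD.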

[3] abbreviates: 25-hydroxy [26,27-3H]-cholesterol.
The mark [4] stands for this setting: head without unit (Tables 15, 17), read-out: Avg ROR γt/5x IC50.
[5] abbreviates: head without unit (Tables 15, 17).
Setting [6] is: Table 20, read-out: Avg ROR γt/5x IC5.

The pKi is the negative decadic logarithm of the Ki, by convention in mol/L. `CCS(=O)(=O)c1ccc(CNC(=O)c2ccc3c(c2)C(C)(C)CN(Cc2ccc(C#N)cc2)C3C(C)C)cc1` (single isomer, unassigned) [Hy2A-23.2]: the pIC50 in test [1] (read-out: Avg ROR γt/5x IC50) is 6.00 to 7.00. For the same compound, in test [2] (setting [3]), the pKi was over 7.00.
In the same order, the values of `CCS(=O)(=O)c1ccc(CNC(=O)c2ccc3c(c2)CCN(Cc2ccc(OC(F)F)nc2)[C@H]3C(C)C)cc1` (single isomer, unassigned) [Hy2A-25.1] are over 7.00 and over 7.00.
In the same order, the values of `CCS(=O)(=O)c1ccc(CNC(=O)c2ccc3c(c2)CCN(Cc2ncc(Br)cn2)[C@H]3C(C)C)cc1` (single isomer, unassigned) [Hy2A-26.1] are 6.00 to 7.00 and over 7.00.
In the same order, the values of `CCC1c2ccc(C(=O)NCc3ccc(S(=O)(=O)CC)cc3)cc2CCN1CC1CCC(C(F)(F)F)CC1` (single isomer, unassigned) [Hy2A-27] are over 7.00 and over 7.00.
In the case of `CCC1c2ccc(C(=O)NC(CO)c3ccc(S(=O)(=O)CC)cc3)cc2CCN1CC1CCC(C(F)(F)F)CC1` (single isomer, unassigned) [Hy2A-28.1], the pIC50 in test [1] (read-out: Avg ROR γt/5x IC50) was over 7.00. In test [2] (setting [3]), the pKi is over 7.00.
For the compound `CCC1c2ccc(C(=O)NC(CO)c3ccc(S(=O)(=O)CC)cc3)cc2CCN1CC1CCC(C(F)(F)F)CC1` (single isomer, unassigned) [Hy2A-28.2], the pIC50 in test [1] (read-out: Avg ROR γt/5x IC50) was 6.00 to 7.00. Moreover, the negative logarithm of the Ki (pKi) in test [2] (setting [3]) is over 7.00.
In the case of `CCS(=O)(=O)c1ccc(CNC(=O)c2cnc3c(c2)CCN(Cc2ccc(F)cc2)C3C(C)C)cc1` (single isomer, unassigned) [Hy2B-6.1], the pIC50 in test [1] (setting [4]) was under 6.00. The pKi in test [2] (setting [5]) is over 7.00.
In the same order, the values of `CCS(=O)(=O)c1ccc(CNC(=O)c2cnc3c(c2)CCN(Cc2ccc(C#N)cc2)C3C(C)C)cc1` (single isomer, unassigned) [Hy2B-7.1] are 6.00 to 7.00 and over 7.00.
In the same order, the values of `CCS(=O)(=O)c1ccc(CNC(=O)c2cnc3c(c2)CCN(Cc2ccc(Cl)cc2)C3C(C)C)cc1` (single isomer, unassigned) [Hy2B-8.1] are 6.00 to 7.00 and over 7.00.
In the same order, the values of `CCS(=O)(=O)c1ccc(CNC(=O)c2cnc3c(c2)CCN(C[C@H]2CC[C@H](C(F)(F)F)CC2)[C@H]3C(C)C)cc1` (single isomer, unassigned) [Hy2B-9.1] are 6.00 to 7.00 and over 7.00.
`CCS(=O)(=O)c1ccc(CNC(=O)c2cnc3c(c2)CCN(C[C@H]2CC[C@H](C(F)(F)F)CC2)[C@H]3C(C)C)nc1` (single isomer, unassigned) [Hy2B-10.1]: the pIC50 in test [1] (setting [4]) was 6.00 to 7.00. Also, the pKi in test [2] (setting [5]) was 6.00 to 7.00.
For the compound `CCS(=O)(=O)c1ccc(CNC(=O)c2ccc3c(c2)CN(c2ncc(F)cn2)C[C@H]3C(C)C)cc1` (single isomer, unassigned) [Hy7-1.1], the pIC50 in test [1] (setting [6]) is under 6.00. In test [2] (setting [3]), the negative-log Ki (pKi) is over 7.00.
In the same order, the values of `CCS(=O)(=O)c1ccc(CNC(=O)c2ccc3c(c2)CN(c2ncc(F)cn2)C[C@@H]3C(C)C)cc1` (single isomer, unassigned) [Hy7-1.2] are under 6.00 and over 7.00.
Take `CCS(=O)(=O)c1ccc(CNC(=O)c2ccc3c(c2)CN(c2ncc(C#N)cn2)C[C@H]3C(C)C)cc1` (single isomer, unassigned) [Hy7-2.1]: the pIC50 in test [1] (setting [6]) is 6.00 to 7.00. Besides, the pKi in test [2] (setting [3]) was over 7.00.
In the same order, the values of `CCS(=O)(=O)c1ccc(CNC(=O)c2ccc3c(c2)CN(c2ncc(Cl)cn2)C[C@H]3C(C)C)cc1` (single isomer, unassigned) [Hy7-3.1] are 6.00 to 7.00 and over 7.00.
In the same order, the values of `CCS(=O)(=O)c1ccc(CNC(=O)c2ccc3c(c2)CN(c2ncc(Cl)cn2)C[C@@H]3C(C)C)cc1` (single isomer, unassigned) [Hy7-3.2] are under 6.00 and over 7.00.
In the same order, the values of `CCS(=O)(=O)c1ccc(CNC(=O)c2ccc3c(c2)CN(c2ncc(C4CC4)cn2)C[C@H]3C(C)C)cc1` (single isomer, unassigned) [Hy7-4.1] are 6.00 to 7.00 and over 7.00.
For the compound `CCS(=O)(=O)c1ccc(CNC(=O)c2ccc3c(c2)CN(c2ncc(C4CC4)cn2)C[C@@H]3C(C)C)cc1` (single isomer, unassigned) [Hy7-4.2], in test [1] (setting [6]), the pIC50 was under 6.00. In addition, in test [2] (setting [3]), the pKi is over 7.00.
In the same order, the values of `CCOc1cnc(N2Cc3cc(C(=O)NCc4ccc(S(=O)(=O)CC)cc4)ccc3[C@H](C(C)C)C2)nc1` (single isomer, unassigned) [Hy7-5.1] are 6.00 to 7.00 and over 7.00.
In the same order, the values of `CC[C@@H]1CN(c2ncc(Cl)cn2)Cc2cc(C(=O)N[C@@H](CO)c3ccc(S(=O)(=O)CC)cc3)ccc21` (single isomer, unassigned) [Hy7-6.1] are under 6.00 and over 7.00.
As to `CC[C@H]1CN(c2ncc(Cl)cn2)Cc2cc(C(=O)N[C@@H](CO)c3ccc(S(=O)(=O)CC)cc3)ccc21` (single isomer, unassigned) [Hy7-6.2], the pIC50 in test [1] (setting [6]) is under 6.00. Also, the pKi in test [2] (setting [3]) was over 7.00.
In the same order, the values of `CC[C@@H]1CN(c2ccc(C(F)(F)F)cc2)Cc2cc(C(=O)NCc3ccc(S(=O)(=O)CC)cc3)ccc21` (single isomer, unassigned) [Hy7-7.1] are over 7.00 and over 7.00.
In the same order, the values of `CC[C@H]1CN(c2ccc(C(F)(F)F)cc2)Cc2cc(C(=O)NCc3ccc(S(=O)(=O)CC)cc3)ccc21` (single isomer, unassigned) [Hy7-7.2] are 6.00 to 7.00 and over 7.00.
In the same order, the values of `CC[C@@H]1CN(c2ccc(C(F)(F)F)cn2)Cc2cc(C(=O)NCc3ccc(S(=O)(=O)CC)cc3)ccc21` (single isomer, unassigned) [Hy7-8.1] are over 7.00 and over 7.00.
For `CC[C@H]1CN(c2ccc(C(F)(F)F)cn2)Cc2cc(C(=O)NCc3ccc(S(=O)(=O)CC)cc3)ccc21` (single isomer, unassigned) [Hy7-8.2], the pIC50 in test [1] (setting [6]) is 6.00 to 7.00. In addition, the pKi in test [2] (setting [3]) was over 7.00.
In the same order, the values of `CC[C@@H]1CN(c2ncc(C(F)(F)F)cn2)Cc2cc(C(=O)NCc3ccc(S(=O)(=O)CC)cc3)ccc21` (single isomer, unassigned) [Hy7-9.1] are over 7.00 and over 7.00.
Turning to `CC[C@H]1CN(c2ncc(C(F)(F)F)cn2)Cc2cc(C(=O)NCc3ccc(S(=O)(=O)CC)cc3)ccc21` (single isomer, unassigned) [Hy7-9.2], the pIC50 in test [1] (setting [6]) was under 6.00. Also, the pKi in test [2] (setting [3]) is over 7.00.
In the same order, the values of `CC[C@H]1CN(c2ncc(C(F)(F)F)cn2)Cc2cc(C(=O)NCc3ccc(S(=O)(=O)CC)cn3)ccc21` (single isomer, unassigned) [Hy7-10.1] are over 7.00 and over 7.00.
In the same order, the values of `CC[C@@H]1CN(c2ncc(C3CC3)cn2)Cc2cc(C(=O)N[C@@H](CO)c3ccc(S(=O)(=O)CC)cc3)ccc21` (single isomer, unassigned) [Hy7-11.1] are 6.00 to 7.00 and over 7.00.
In the same order, the values of `CC[C@H]1CN(c2ncc(C3CC3)cn2)Cc2cc(C(=O)N[C@@H](CO)c3ccc(S(=O)(=O)CC)cc3)ccc21` (single isomer, unassigned) [Hy7-11.2] are under 6.00 and over 7.00.
